{"source": "patent US7815946B1", "about": "“Anti-diabetic and cholesterol lowering preparation from fenugreek seeds” (priority 2001, dated 2010)", "key": {"diabetic rabbits [1]": {"system": "diabetic rabbits", "assay": "Comparison of Menthi, trigonelline and tolbutamide on glucose tolerance", "assay_type": "in vivo, rabbit", "details": "100 mg/kg/day for 3 days", "description": "The antidiabetic activity of GII (Menthi) and the alkaloid trigonelline, which can be isolated from fenugreek seeds, were compared. Diabetic rabbits were administered the same dose (100 mg/kg/day) daily for 3 days. The activity of these two was also compared with a standard drug tolbutamide all at the same dosage schedule of 100 mg/Kg/day for 3 days."}, "[2]": {"details": "reported by Mishinsky; cited from earlier work"}, "diabetic rabbits [3]": {"system": "diabetic rabbits", "details": "cited from earlier work"}}}
{"compound": "CCCCNC(=O)NS(=O)(=O)c1ccc(C)cc1", "note": "[Tolbutamide, tolbutamide]", "values": [{"measurement": "% Decrease in Blood Glucose Level at 2.5 Hours in GTT", "setting": "diabetic rabbits [1]", "value": 25, "unit": "%"}]}
{"compound": "C[n+]1cccc(C(=O)[O-])c1", "note": "[Trigonelline, trigonelline]", "values": [{"measurement": "% Decrease in Blood Glucose Level at 2.5 Hours in GTT", "setting": "diabetic rabbits [1]", "value": 16, "unit": "%"}, {"measurement": "hypoglycemic activity", "setting": "[2]", "value": "only mild and transient hypoglycemic activity"}]}
{"compound": "fenugreekine", "values": [{"measurement": "blood glucose during GTT", "setting": "diabetic rabbits [3]", "value": "could not lower blood glucose"}]}
